Results from patent US6541463B1, “Inhibitors of type 5 and type 3 17β-hydroxysteroid dehydrogenase and methods for their use” (Endorecherche, Inc., priority 1998, dated 2003).

Experiments:
[1] = biological target: T1, human type 5 17β-hydroxysteroid dehydrogenase (Homo sapiens, UniProt P42330); test: Inhibition of human type 5 17β-HSD activity in transfected 293 cells; format: cell-based; conditions: Table 4′; read-out: Inhibition Type V 17β-HSD IC50
T1 construct: screen again a human placental λgt11 cDNA to get the full length cDNA clone; expressed in transfected cells; host or cells: human embryonal kidney 293 cells (pCMV / pCMV-neo vector)
T1 sequence (P42330 1-323): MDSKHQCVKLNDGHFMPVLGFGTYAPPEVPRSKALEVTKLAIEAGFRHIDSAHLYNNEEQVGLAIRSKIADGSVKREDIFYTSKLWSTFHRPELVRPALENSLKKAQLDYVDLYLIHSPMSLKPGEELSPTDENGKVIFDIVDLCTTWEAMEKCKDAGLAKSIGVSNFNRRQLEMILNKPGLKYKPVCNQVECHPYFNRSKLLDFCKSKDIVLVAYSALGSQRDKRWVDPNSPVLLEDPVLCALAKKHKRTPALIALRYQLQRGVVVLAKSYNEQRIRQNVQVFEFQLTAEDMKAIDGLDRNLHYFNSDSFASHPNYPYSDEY
Description: The manner in which IC50 was determined is described in “Efficacy of the Preferred Inhibitors”. Lower numbers for IC50 are desirable.
Using a oligoprimer pair (5′-GGA-AAT-CGT-GAC-AGG-GAA-TGG-ATT-CCA-AAC-AG-3′, 5′-GGA-ATT-CTT-TAT-TGT-ATT-TCT-GGC-CTA-TGG-AGT-GAG-3′) derived from human aldoketoreductase (Qin et al., J. Steroid Biochem. Molec. Biol. 46: 673-679, 1993) and polymerase chain reaction (PCR), we have amplified from a human placental λgt11 cDNA library (Clontech Laboratories Inc., Palo Alto, Calif.) a cDNA fragment that was used as probe to screen again a human placental λgt11 cDNA to get the full length cDNA clone. The amplified cDNA fragment was purified on agarose gel and labeled with [α^32P]dCTP (Amersham Corp.) using the random primer labeling kit from Pharmacia Inc. PCR amplification reaction medium contained 50 mM KCl, 10 mM Tris-HCl, pH 8.3, 0.1% gelatin, 1 mM MgCl2, 250 μM dNTP, 0.25 μM oligonucleotide primers, and 200 ng of DNA prepared from human placental λgt11 cDNA library. The aqueous phase was overlaid with 75 μL of mineral oil to avoid evaporation. The mixture was heated at 98° C. for 5 min, following the temperature reduction to 72° C., 1 unit of Taq DNA polymerase was added. Using a DNA Thermal Cycler (Perkin-Elmer Corp.), 30 cycles of amplification were carried out using a step program (94° C., 1 min; 60° C., 1 min; and 72° C., 1 min)/cycle.
Approximately 5×10^5 recombinant phage plaques were screened with 1.5×10^6 cpm/ml of the probe. Prehybridization was performed for 4 h at 42° C. in 50% formamide, 5× Denhardt's solution (1× Denhardt's being 0.02% polyvinyl pyrrolidone, 0.02 Ficoll, 0.02 bovine serum albumin), 5×SSPE (1×SSPE being 0.18M NaCl, 10 mM NaH2PO4, pH 7.4, 1 mM EDTA), 0.1% SDS, and 100 μg/ml yeast tRNA. The probe was denatured by heating at 100° C. for 5 min, before being added to the hybridization solution at 42° C. overnight. Filters were then washed twice at room temperature in 2×SSC (1×SSC being […], pH 7.0), 0.1% SDS, and twice in 0.1×SSC, 0.1% SDS at 60° C. Positive recombinant plaques were purified by replating twice and grown in liquid culture. Phage DNA were isolated by centrifugation for 90 min at 105,000×g, and DNA was then isolated by phenol extraction and precipitation with isopropanol (Karen et al. 1987; In: Current Protocols in Molecular Biology (F. M. Ausubel, R. Brent, E. Kingston, D. D. Moore, T. G. Seidman, T. A. Smith and K. Struhl, eds), Wiley & Sons, New York, pp. 1.13.1-1.13.6).
The phage DNA were digested with EcoRI restriction enzymes and the resulting cDNA fragments were inserted into the EcoRI site downstream to the cytomegalovirus (CMV) promoter of the pCMV vector (kindly provided by Dr. Matthew, Cold Spring Harbor, N.Y., USA). Recombinant pCMV plasmids were amplified in Escherichia Coli DH5α competent cells, and were isolated by alkaline lysis procedure (Maniatis et al., In: Molecular cloning: a laboratory manual, Cold Spring Harbor Laboratory., 1982). Sequencing of double-stranded plasmid DNA was performed according to the dideoxy chain termination method (Sanger et al., PNAS 74: 5453-5467, 1977) using a T7 DNA polymerase sequencing kit (Pharmacia LKB Biotechnology). To avoid errors, all sequences were determined by sequencing both strands of the DNA. Oligonucleotide primers were synthesized in our laboratory with a 394 DNA/RNA synthesizer (Applied Biosystem).
The pCMV vector contain 576 nucleotides of the pCMV promoter (followed by 432 bp of small t intron (fragment 4713-4570) and poly adenylation signal (2825-2536)of SV40, followed by 1989 bp of the Pvu II(628)-AatII (2617) fragment from pUC 19 vector (New England Biolabs) that contains an E. Coli origin of replication and an ampicillin resistance gene for propagation in E. Coli. […]

[2] = biological target: T2, human type 2 17β-hydroxysteroid dehydrogenase (Homo sapiens, UniProt P37059); test: Enzymatic assay for type 2 17β-HSD; format: biochemical; conditions: Table 4′, bracketed values, 3 · 10^−8M
T2 construct: expressed in transfected cells; host or cells: 293 cells, transient transfection; microsomal fraction (100 000×g pellet)
T2 sequence (P37059 1-387): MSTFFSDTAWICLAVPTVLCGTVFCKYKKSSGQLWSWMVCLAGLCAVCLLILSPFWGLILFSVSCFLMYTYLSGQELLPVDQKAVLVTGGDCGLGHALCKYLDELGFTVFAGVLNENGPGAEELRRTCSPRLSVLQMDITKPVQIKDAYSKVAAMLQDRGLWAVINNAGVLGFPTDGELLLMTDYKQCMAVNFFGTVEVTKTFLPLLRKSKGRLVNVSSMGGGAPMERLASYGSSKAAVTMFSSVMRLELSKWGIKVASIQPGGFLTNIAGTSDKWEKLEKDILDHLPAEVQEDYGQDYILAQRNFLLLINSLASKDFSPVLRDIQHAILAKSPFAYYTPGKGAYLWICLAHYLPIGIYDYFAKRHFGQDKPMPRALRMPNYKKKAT
Description: The manner in which IC50 was determined is described in “Efficacy of Preferred Inhibitors: VI. Enzymatic assay for types 1, 2, and 3 17β-HSD and types 1 and 3 3α-HSD”. […] numbers of IC50 are desirable. Blank means that a determination was not done. […]
Enzyme sources. 293 cells transiently transfected with expression vectors encoding types 1, 2 and 3 17β-HSD (Luu-The et al., J. Steroid Biochem. Molec. Biol., 55: 581-587, 1995), types 1 and 2 5α-reductase (Luu-The et al., J. Invest. Dermatol., 102: 221-226, 1994) and types 1 and 3 3α-HSD (Dufort et al. Biochem. Biophys. Res. Commun. 228: 474-479, 1996), using the calcium phosphate procedure (Kingston et al., In: Current Protocols in Molecular Biology. Edited by E. M. Ausbel, R. Brent, R. E. Kingston, D. D. Moore, J. G. Seidman, J. A. Smith, K. Struhl. John Wiley & Sons, New York, pp. 9.1.1-9.1.9, 1991; Luu-The et al., J. Invest. Dermatol., 102: 221-226, 1994). For assays using cell subfractions, cells were sonicated in 50 mM sodium phosphate buffer (pH 7.4), containing 20% glycerol and 1 mM EDTA and centrifuged at 10 000×g for 30 min before centrifugation for 100 000×g for 1 h to separate the mitochondrial and microsomal fractions, respectively. The cytosol fractions (100 000×g supernatant) was used to determine type 1 activity while the microsomal fraction (pellet at 100 000×g) was used for measurement of types 2 and 3 17β-HSD activities.
Incubation. The enzymatic reaction was carried out at 37° C. in 1 ml of 50 mM sodium phosphate buffer, pH 7.4, containing 20% glycerol, 1 mM EDTA, and 2 mM cofactors (NADPH or AND^+) for 1 h in the presence of 0.1 μM ^14C-labeled substrate: estrone and 4-dione for types 1 and […] 17β-HSD, respectively, testosterone for type 2 17β-HSD as well as types 1 and 2 5α-reductases, DHT for types 1 and 3 3α-HSD activities, and the indicated concentration of inhibitor.
Extraction of metabolites, migration on TLC and quantification were as described above for the assay of type 5 17β-HSD.

[3] = system: Shionogi mouse mammary carcinoma cells; test: Antiandrogenic activity: inhibition of DHT-induced proliferation of Shionogi cells; format: cell-based; conditions: Table 4′, DHT-induced proliferation; for Antiandrogenic Activity Shionogi, DHT E^−6: E^−6 (10^−6 M)
Description: The manner in which the inhibition is determined is described in “Other Tests; B-Androgenic/Antiandrogenic Activity”. Lower numbers are desirable. ND means that a determination was not done.
(§1) Androgenic/antiandrogenic activity of some preferred compounds has been measured using the Shionogi mouse mammary carcinoma cells.
(§2) Minimal essential culture medium (MEM), non-essential amino acids, and fetal calf serum were purchased from Flow Laboratories. In order to remove endogenous steroids, serum was incubated overnight at 4° C. with 1% activated charcoal (Norit A, Fisher) and 0.1% Dextran T-70 (Pharmacia). A 2-h supplementary adsorption was performed at 25° C. in order to further remove protein-bound steroids. Serum was also inactivated by a 20-min incubation at 56° C.
(§3) 5α-dihydrotestosterone (DHT) was obtained from Steraloids. The antiandrogen hydroxyflutamide (OH-FLU) was kindly supplied by Drs. T. L. Nagabuschan and R. Neri (Schering Corporation, Kenilworth, U.S.A.).
(§4) Shionogi male mice bearing androgen-sensitive mammary tumors were obtained from Drs. Keishi Matsumoto, Osaka, Japan, and Yvonne Lefebvre, Ottawa, Canada. For primary culture, tumors were excised and washed in ice-cold sterile 25 mM Hepes buffer (137 mM NaCl; 5 mM KCl; 0.7 mM Na2HPO4; 10 mM glucose, pH 7.2). After mincing with scissors, the tumor minces were digested for 2 h at 37° C. in Hepes buffer containing 3.8 mg/ml collagenase (Clostridium, Boehringer), 1.5 mg/ml hyaluronidase II (Sigma), and 3% bovine serum albumin fraction V (Schwartz-Mann). Dispersed cells were collected by centrifugation (500×g for 10 min), washed twice by suspension in minimal essential medium (MEM) containing 5% dextran-coated charcoal-treated fetal calf serum (DCC-FCS), 1% non-essential amino acids, 10 IU/ml penicillin, 50 μg/ml streptomycin, and 100 nM dihydrotestosterone (DHT) (Steraloids).
(§5) Cells were plated in the same medium at a density of 75 000 cells/ml in 75 cm^2 flasks under an atmosphere of 5% carbon dioxide in air at 37° C. The medium was changed weekly. The steroids and antisteroids were dissolved in ethanol and kept in stock solutions chosen to yield final ethanol concentrations less than 0.01% in the culture medium.
(§6) Cells were subcultured at near-confidence by gentle digestion in a solution of 0.1% pancreatin (Flow Laboratories) in Hepes buffer containing 3 mM ethylenediaminetetraacetic acid (EDTA) (pH 7.2). Cells were pelleted by centrifugation, resuspended in culture medium, counted in a Coulter counter, and replated as described above. Soft agar cloning was performed as described (Stanley et al., Cell 10: 35-44, 1977) in the presence of 100 nM DHT.
(§7) Cells were plated in 24-well plates at a density of 20 000 cells/well. The indicated increasing concentrations of agents were added to triplicate dishes, and cells were grown for 10-12 days with changes of medium every 3-4 days. Cell number was measured by direct counting in a Coulter counter.
(§8) ED50 values of action of DHT and glucocorticoids were calculated according to a least-square regression as described (Rodbard, Endocrinology 94: 1427-1431, 1974). Statistical significance was calculated according to a multiple-range test (Kramer, Biometrics 12: 307-310,1956).

[4] = system: Shionogi mouse mammary carcinoma cells; test: Androgenic activity: stimulation of proliferation of Shionogi cells; format: cell-based; conditions: Table 4′
Description: In column 9, the androgenic activity of preferred type 5 inhibitors expressed as the percentage of stimulation of proliferation of Shionogi cells at concentrations of 10^−7 M (left number) and 10^−6 M (right number) of inhibitor. The manner in which the stimulation is determined is described in “Other Tests; B-Androgenic/Antiandrogenic Activity”. Lower numbers are desirable. ND means that a determination was not done.
as §1, §2, §3, §4, §5, §6, §7, §8

CC1(C)CCC2(CCC3C4CC(=O)c5cc(O)ccc5C4CCC32C)OC1=O (stereo not drawn) [EM-01608-D]
IC50 [1]: 3.6 ± 0.5 nM | inhibition ([2]; read-out: Inhibition Type 2 17β-HSD Activity [% Inh. at 3 · 10^−8M]): 58%

CCC1(CC)CC[C@@]2(CC[C@H]3[C@@H]4CCc5cc(O)ccc5[C@H]4CC[C@@]32C)OC1=O [EM-1416, 1,3,5(10)-Estratrien-3-ol-17(R)-spiro-2′-(5′,5′-diethyl-6′-oxo)tetrahydropyran]
Antiandrogenic Activity Shionogi, DHT E^−6 [3]: −41% | Antiandrogenic Activity Shionogi, DHT E^−7 [3]: 26% | Inhibition Type 2 17β-HSD Activity [% Inh. at 3 · 10^−8M] [2]: [76] % | Androgenic Activity Shionogi, Basal E^−6 [4]: −4% | Androgenic Activity Shionogi, Basal E^−7 [4]: 28%

CCC1(CC)CC[C@@]2(CC[C@H]3[C@@H]4CCc5cc(OC)ccc5[C@H]4CC[C@@]32C)OC1=O [EM-1419, 3-Methoxy-1,3,5(10)-estratrien-17(R)-spiro-2′-(5′,5′-diethyl-6′-oxo)tetrahydropyran]
Antiandrogenic Activity Shionogi, DHT E^−6 [3]: −64% | Antiandrogenic Activity Shionogi, DHT E^−7 [3]: 2% | Inhibition Type 2 17β-HSD Activity [% Inh. at 3 · 10^−8M] [2]: [74] % | Androgenic Activity Shionogi, Basal E^−6 [4]: −29% | Androgenic Activity Shionogi, Basal E^−7 [4]: 16%
